Measured values as given in patent US20020086027A1, “Composition and method for enhancing immunological memory response” (priority 1998, published 2002).
“Also recorded” adds a separate entry of the source.

What was measured:
[1] = orally administered; cited from earlier work
[2] = tested on: antigen-specific T cell memory; assay: Mice immunized with ovalbumin without adjuvant, splenic T cell recall proliferation; assay type: in vivo; settings: POX 1 mg per mouse per day, day -1 to day 5
Method: Splenic cells were stimulated in vitro either on day 7 or on day 60 after immunization with titrated doses of ovalbumin for 4 days and pulsed with 3H-thymidine for 16 h before being harvested for scintillation spectrometry In the second system used to validate the memory-enhancing effects of POX, we have used immunization with a very poor immunogen, egg albumin without adjuvant.

[3] = tested on: human T cells; assay: Cytokines in culture (IL-2 in supernatants, IFN-γ during recall); assay type: cell-based
Text: Such possibilities make it plausible that signal-transduction pathways can be identified that differentially affect the commitment of responding T cells to the effector vs the memory pathways. […] It was of interest to look at the role of IL-2 in these events. […] Yet, the recall responses of cells primed under cover of […] are far higher than those of cells primed without […]). In fact, if […] is used in a situation in which T cell proliferation is abrogated by Aph it still enhances the response capability of primed T cells (FIG. 9). […] The enhancement in the magnitude of the secondary response caused by the presence of […] during priming is not simply the result of altered kinetics or response either (FIG. 11), but an actual increase. Clearly […] affects T cell priming such that commitment to memory is enhanced at the cost of effector responses, independent of its on T cell proliferation. […] (data not shown).

[4] = tested on: human T cells; assay: Secondary (recall) alloproliferative response of T cells primed in vitro; assay type: cell-based; settings: for memory/recall proliferative response: primed with allo-PBMCs in presence of 100 ug/ml drug, restimulated without drug
Method: In this system, we have used responses to first exposure as an indication of primary responses. When cells stimulated in this fashion are rested in culture and then restimulated with the same stimulator PBMCs, the 'recall' response measured are taken as an indication of immune memory. Proliferation is measured by the incorporation of radioactive tritiated thymidine in dividing cells. For priming, responder and stimulator cells mixed in 2-5 ml cultures in a ratio of 1:1-3:1. After five days of incubation, the cells were harvested, counted and viable cells used as primed responders with g-irradiated allostimulators in secondary alloproliferation assays, which were pulsed with (H^3)-thymidine after four days for estimating cell proliferation. For flow cytometric analysis, cells were separated from debris by Ficoll-Paque gradient centrifugation before staining. […] Sigma Chemical Co.) at room temperature for 20 minutes, washed extensively and used. For priming in vitro, responder PBMCs were incubated for 72 or 144 h at a ratio of either 1:1 or 2:1 respectively, with stimulator PBMCs. Where appropriate, CsA. Aph. and/or […] were added at the concentrations indicated, of PFA-fixed PBMCs were used instead.

[5] = tested on: allo-specific precursor T cells; assay: Limiting dilution analysis of clonal responder frequency and burst size; assay type: cell-based, human
Text: Limiting dilution analyses were used to calculate the number of transplantation antigen-specific memory T cells in cultures primed in the presence or absence of POX. Multiple replicate wells of titrated numbers of primed responders were restimulated. the numbers of wells showing proliferative responses at each responder dose were used to calculate the frequency of responding memory t cells in the primed populations. estimates of the extent of proliferation in wells effectively containing single responder cells served as a measure of clonal burst size. […] To determine the frequence of all-specific precursor cells in the various responder populations, titrating numbers (from 10,000 to 200 per well) of variously primed cells were added to a constant number (1×10^5 per well) of g-irradiated stimulator PBMCs. Of the 48 wells plated per responder dose, those wells showing a response at least twice that of the background value were scored positive. The responder frequency was calculated by taking the number of negative wells into account. The response was considered clonal at the responder cell number where the proportion of positively responding wells was less than 37%. At responder cell concentrations showing clonal frequencies, the average cpm values of responding (versus non-responding) wells were used as an estimate of the average clonal burst size of single responding T cells.

For CC(=O)CCCCn1c(=O)c2c(ncn2C)n(C)c1=O [POX, pentoxifylline], the LD50 [1] is listed as “about 1385 milligrams per kilogram body weight”, the “T cell memory recalled” value ([2]; day 7 post-immunization) is listed as “higher” and the “T cell memory recalled” value ([2]; day 60 post-immunization) is listed as “dramatically high”. The “IL-2 in culture supernatants” value ([3]; Trental 100 μg/ml treated cultures) was “do not find detectable levels”, the “levels of IFN-γ produced during recall” value ([3]; primed in presence vs absence of Trental) was “not different” and the “subsequent alloproliferative response of unprimed cells incubated with drug alone” value ([4]; 100 μg/ml, no stimulators during incubation) was “does not enhance”. For the same molecule, the “enhancing effect on the recall response” value ([4]; lower doses of Trental during priming) was “decreases”, the “secondary response to unfixed PBMCs” value ([4]; primed with PF-fixed PBMCs in presence of POX 100 ug/ml) was “enhanced” and the recall response ([4]; primed with Trental plus Aph vs Aph alone) was “still higher”. For the same molecule, the memory/recall proliferative response [4] was “much improved”, the memory/recall proliferative response ([4]; listed as Trental) was “enhanced” and the “frequency of alloreactive responder (memory) T cells” value ([5]; drug present during priming (POX 100 ug/ml)) was “enhanced; also recorded: significantly enhances”. The “clonal burst size (average clonal proliferative response)” value ([5]; drug-treated vs untreated during priming) was “without altering; also recorded: not significantly different”.
